Laboratory results from US9243037B2, “Gramicidin a mutants that function as antibiotics with improved solubility and reduced toxicity” (Trustees of Boston College, priority 2011, dated 2016).
Entries after “also recorded” stand apart in the source; their conditions may differ. Where two headings read alike, the source gives them in different places.

Legend:
[1] = tested on: Streptococcus pyogenes (ATCC 19615); conditions: for MIC relative to wild-type Gramicidin A: S. Pyogenes
[2] = tested on: human red blood cells (hRBCs); assay: Haemoglobin release from human red blood cells; format: cell-based
Experimental: Fresh human red blood cells (hRBCs) were centrifuged at 3500 rpm and washed with PBS buffer until the supernatant was clear. The hRBCs were then resuspended and diluted to a final concentration of 1% (v/v) in PBS and used immediately. 15 μL of serial dilution (2-fold) of peptides in DMSO or DMSO alone as a negative control were added to 1.5 mL of hRBCs in PBS. The resulting mixture was gently shaken to mix well and incubated at 37° C. for 1 hr, followed by centrifugation at 3500 rpm for 10 min using tabletop centrifuge. Aliquots (50 μL) of the supernatant (in triplicates) were transferred into a sterile 96-well plate containing 50 μL of H2O in each well. Release of hemoglobin was monitored at 415 nm using a microtiter plate reader. Percentage hemolysis was calculated using percentage hemolysis=100·(A415, peptide-A415,DMSO)/(A415, complete hemolysis-A415, DMSO), where complete hemolysis is achieved by mixing hRBCs with 1% TritonX-100.

[3] = tested on: Bacillus subtilis (ATCC 663); conditions: for MIC relative to wild-type Gramicidin A: B. subtilis
[4] = tested on: human red blood cells (hRBCs); assay: K+ leakage from hRBCs (flame atomic emission); format: cell-based
Experimental: The rest of supernatant (1.2 mL) from each sample prepared as described in the hemoglobin leakage assay was transferred into a new sterile eppendorf tube and subject to the K+ concentration measurement using a flame-atomic emission spectrometer (λem=766.5 nm, Perkin Elmer Atomic absorption Spectrometer 3100, acetylene/air flame). Three readings were taken for each sample and averaged as final results. The fraction of K+ leakage from hRBCs was calculated as percentage K+ leaked=100·(I776.5,peptide−I776.5,DMSO)/(I776.5,complete lysis−I776.5,DMSO).

[5] = tested on: Staphylococcus aureus (ATCC 6538); conditions: for MIC relative to wild-type Gramicidin A: S. Aureus
[6] = cited from earlier work; for Sat. Conc, Lys series: Trp absorbance @ 280 nm, 10 mM PBS, pH 7.0, 1% DMSO, values taken from ref
MCF-7 = assay: MTT toxicity assay; format: cell-based, human; conditions: MCF-7; in words
Experimental: (§1) Toxicity of gA-WT and gA-5 was tested against two human cancer cell lines, HeLa and MCF-7 (gifts from Professor Eranthie Weerapana at Boston College) by using the MTT assay as described in the protocol provided by Invitrogen.[5] HeLa cells (in DMEM high glucose media with 10% FBS, 1% Pen/Strep, 37° C., 5% CO2) and MCF-7 cells (in RPMI media with 10% FBS and 1% Pen/Strep, 37° C., 5% CO2) were grown to about 80% confluent before removed from the surface of a 20 cm petri-dish with […] with EDTA (3-5 mins, 37° C., 5% CO2). Cells were pelleted (3,500 rpm, 5 mins at 4° C.), and plated at 15,000 cells per well (100 μL per well), then incubated for 48 hrs before peptide addition.
(§2) Stock solutions of gA in DMSO with varied concentrations were prepared so that for each peptide concentration the total volume of DMSO addition was kept constant at 1% (v/v). For each peptide concentration, samples were set up as four replicates. Control wells were loaded with 1 μL of DMSO. After overnight incubation, cells were washed once with PBS before being incubated for 4 hrs with 110 μL of 12 mM 3-(4,5-Dimethylthiazol-2-yl)-2,5-diphenyltetrazolium bromide (MTT) dissolved in RPMI media. The MTT assay was quenched with 100 μL of 10% SDS in 0.01 M HCl and allowed to incubate overnight before absorbance at 570 nm was recorded. Wells were averaged and standard deviations determined for each peptide concentration. Data were normalized to the DMSO control to give % cell survival (see FIG. 3).

HeLa = assay: MTT toxicity assay; format: cell-based, human; conditions: HeLa; in words
Experimental: as §1, §2

[7] = Peptide binding onto membranes (Trp fluorescence)
physchem = format: physicochemical
Experimental: Peptide solubility in 10 mM HEPES buffer with 1% DMSO was measured by monitoring tryptophan absorbance. A concentrated (6.0-8.0 mM) peptide stock solution in DMSO was diluted 100 times (5 μL of the stock into 500 jtl of 10 mM HEPES buffer, pH 7.0). The mixture was sonicated for 30 mins and then subject to centrifugation (14,000 rpm, 10 mins) to remove possible precipitate. The supernatant (400 μL) was transferred to a quartz cuvette and the peptide concentration was determined by tryptophan absorbance at 280 nm (ε=22760 M−1 cm-1). The UV/Vis spectra of the supernatant can be seen in FIG. 1 and FIG. 5.

[8] = Peptide binding onto membranes (Trp fluorescence); conditions: negatively charged POPC/POPG vesicles; in words
[9] = K+ release from liposomes, lipid not specified; format: biochemical; conditions: in words
Experimental: With the D-Lys residues incorporated towards the C-terminus, the gA peptide analogs described herein display amphipathic sequences. Since many amphipathic peptides are known to cause membrane damage through a detergent-like mechanism instead of forming specific channels,[19] it was further examined whether it is the case with the gA peptide analogs provided herein. Toward this end, the ion selectivity of gA-3, 4, and 5 was assessed by using liposomes encapsulating K+ and Tb3+ respectively. […] The wild type like channel structure of the D-Lys mutants is further supported by the fact that gA-5 and gA-WT share similar signatures in their circular dichroism spectra (FIG. 11). This exclusive leakage of monovalent cations presents a great advantage of the gA analog peptides described herein in comparison to the majority of AMPs, which often cause catastrophic membrane collapse to release all bacterial cellular content, leading to potential complications of over-stimulated immune response.
The K+ leakage from liposomes was determined by a potassium ion selective electrode (K-ISE, Cole-Parmer, Vernon Hills, Ill.). The electrode was calibrated each day before experiments. A liposome solution in Buffer A (2 mL, 500 μM POPC or POPC/POPG⊃10 mM HEPES, 150 mM KCl, pH 7.0) was stirred at constant speed and peptide at various concentration (1 μL in DMSO) was added accumulatively. Three minutes after each peptide addition, the K+ concentration was measured and reported as the K-ISE potential. At the end of each experiment, gA-WT stock (1 μL, 1 mM) was added to induce 100% K+ leakage. The potential reported by the K-ISE was plotted against peptide concentration after the background noise (caused by DMSO addition) was subtracted and normalized to 0-100%.

[10] = Tb3+ leakage from liposomes, lipid not specified; format: biochemical; conditions: at peptide concentrations causing complete K+ release; in words
[11] = Table 2, standard micro-dilution

CC(C)C[C@@H](NC(=O)[C@H](C)NC(=O)CNC(=O)[C@@H](NC=O)C(C)C)C(=O)N[C@@H](C)C(=O)N[C@@H](C(=O)N[C@H](C(=O)N[C@@H](C(=O)N[C@@H](Cc1c[nH]c2ccccc12)C(=O)N[C@H](CC(C)C)C(=O)N[C@@H](Cc1c[nH]c2ccccc12)C(=O)N[C@H](CC(C)C)C(=O)N[C@@H](Cc1c[nH]c2ccccc12)C(=O)N[C@H](CC(C)C)C(=O)N[C@@H](Cc1c[nH]c2ccccc12)C(=O)NCCO)C(C)C)C(C)C)C(C)C (racemic) [gA-WT, formyl-V-G-A-dL-A-dV-V-dV-W-dL-W-dL-W-dL-W-NHCH2CH2OH, reference compound]
MICs S. Pyogenes [1, 11]: 0.16 µM
Minimum Inhibition Concentration S. Pyogenesis ([1]; Table 6): 0.16 µM
HC50 (50% haemoglobin leakage relative to 1% TritonX-100) ([2]; Table 2, hRBCs): 5 µM
Toxicity HC50 ([2]; Table 6, hRBCs, preliminary): 5 µM
HC50 ([2]; Table 8): 5
MICs B. Subtilius [3, 11]: 2.5 µM
Minimum Inhibition Concentration B. Subtilius ([3]; Table 6): 2.5 µM
KC50 (50% K+ ion leakage relative to 1% TritonX-100) ([4]; Table 2, hRBCs): 0.00014 µM
Toxicity KC50 ([4]; Table 6, hRBCs, preliminary): 0.00014 µM
KC50 ([4]; hRBCs): 140 pM
MICs S. Aureus [5, 11]: 2.5 µM
Minimum Inhibition Concentration S. Aureus ([5]; Table 6): 2.5 µM
solubility in water ([6]; wild type, from reference [8]): < 0.05 µM
toxicity, cell survival (MTT) (MCF-7): low μM potency
toxicity, cell survival (MTT) (HeLa): low μM potency

CC(C)C[C@@H](NC(=O)[C@H](C)NC(=O)CNC(=O)[C@@H](NC=O)C(C)C)C(=O)N[C@@H](C)C(=O)N[C@@H](C(=O)N[C@H](C(=O)N[C@@H](C(=O)N[C@@H](Cc1c[nH]c2ccccc12)C(=O)N[C@H](CCCCN)C(=O)N[C@@H](Cc1c[nH]c2ccccc12)C(=O)N[C@H](CC(C)C)C(=O)N[C@@H](Cc1c[nH]c2ccccc12)C(=O)N[C@H](CC(C)C)C(=O)N[C@@H](Cc1c[nH]c2ccccc12)C(=O)NCCO)C(C)C)C(C)C)C(C)C (racemic) [gA-1, formyl-V-G-A-dL-A-dV-V-dV-W-dK-W-dL-W-dL-W-NHCH2CH2OH]
MICs S. Pyogenes ([1]; ATCC 19615): 0.16 µM
MIC relative to wild-type Gramicidin A [1]: equivalent to that of wild-type Gramicidin A
apparent dissociation constant (Kd) / binding ([7]; neutral POPC vesicles, in words): apparent Kd values close to that of gA-WT
water solubility, fold higher than wild-type Gramicidin A (physchem): ~200 fold
HC50 (50% haemoglobin leakage relative to 1% TritonX-100) ([2]; red cells of human): 5~10 μM
MICs B. Subtilius ([3]; ATCC 663): 5 µM
MIC relative to wild-type Gramicidin A [3]: equivalent to that of wild-type Gramicidin A
KC50 (50% K+ ion leakage relative to 1% TritonX-100) [4]: 0.01 µM
peptide concentration for 50% K+ ion leakage, fold greater than wild-type Gramicidin A [4]: ~100 fold
MICs S. Aureus ([5]; ATCC 6538): 2.5 µM
MIC relative to wild-type Gramicidin A [5]: equivalent to that of wild-type Gramicidin A
Sat. Conc, Lys series [6]: 10 µM
apparent dissociation constant (Kd) / binding [8]: apparent Kd values close to that of gA-WT

CC(C)C[C@@H](NC(=O)[C@H](C)NC(=O)CNC(=O)[C@@H](NC=O)C(C)C)C(=O)N[C@@H](C)C(=O)N[C@@H](C(=O)N[C@H](C(=O)N[C@@H](C(=O)N[C@@H](Cc1c[nH]c2ccccc12)C(=O)N[C@H](CCCCN)C(=O)N[C@@H](Cc1c[nH]c2ccccc12)C(=O)N[C@H](CC(C)C)C(=O)N[C@@H](Cc1c[nH]c2ccccc12)C(=O)N[C@H](CCCCN)C(=O)N[C@@H](Cc1c[nH]c2ccccc12)C(=O)NCCO)C(C)C)C(C)C)C(C)C (racemic) [gA-3, formyl-V-G-A-dL-A-dV-V-dV-W-dK-W-dL-W-dK-W-NHCH2CH2OH]
MICs S. Pyogenes ([1]; ATCC 19615): 0.32 µM
MIC relative to wild-type Gramicidin A [1]: ~2 fold
reduced affinity to POPC vesicles [7]: ~70 folds
K+ release from LUVs [9]: potent activity in K+ release
water solubility, fold higher than wild-type Gramicidin A (physchem): ~740 fold
haemoglobin leakage from hRBCs [2]: not enough to cause 50% haemoglobin leakage
HC50 (50% haemoglobin leakage relative to 1% TritonX-100) ([2]; red cells of human): >70 µM
MICs B. Subtilius ([3]; ATCC 663): 5 µM
MIC relative to wild-type Gramicidin A [3]: ~2 fold
KC50 (50% K+ ion leakage relative to 1% TritonX-100) [4]: 5~10 μM
peptide concentration for 50% K+ ion leakage, fold greater than wild-type Gramicidin A [4]: greater than 10^5 fold
MICs S. Aureus ([5]; ATCC 6538): 5 µM
MIC relative to wild-type Gramicidin A [5]: ~2 fold
Sat. Conc, Lys series [6]: 38 µM
Tb3+ leakage from LUVs [10]: essentially no Tb3+ leakage; also recorded: behave similarly to gA-5
apparent dissociation constant (Kd) / binding [8]: comparable to that of gA-WT

CC(C)C[C@@H](NC(=O)[C@H](C)NC(=O)CNC(=O)[C@@H](NC=O)C(C)C)C(=O)N[C@@H](C)C(=O)N[C@@H](C(=O)N[C@H](C(=O)N[C@@H](C(=O)N[C@@H](Cc1c[nH]c2ccccc12)C(=O)N[C@H](CCCCN)C(=O)N[C@@H](Cc1c[nH]c2ccccc12)C(=O)N[C@H](CCCCN)C(=O)N[C@@H](Cc1c[nH]c2ccccc12)C(=O)N[C@H](CC(C)C)C(=O)N[C@@H](Cc1c[nH]c2ccccc12)C(=O)NCCO)C(C)C)C(C)C)C(C)C (racemic) [gA-4, formyl-V-G-A-dL-A-dV-V-dV-W-dK-W-dK-W-dL-W-NHCH2CH2OH]
MICs S. Pyogenes ([1]; ATCC 19615): 0.16 µM
MIC relative to wild-type Gramicidin A [1]: equivalent to or ˜2-fold higher
reduced affinity to POPC vesicles [7]: ~70 folds
K+ release from LUVs [9]: potent activity in K+ release
water solubility, fold higher than wild-type Gramicidin A (physchem): ~740 fold
haemoglobin leakage from hRBCs [2]: not enough to cause 50% haemoglobin leakage
HC50 (50% haemoglobin leakage relative to 1% TritonX-100) ([2]; red cells of human): >100 µM
MICs B. Subtilius ([3]; ATCC 663): 2.5 µM
MIC relative to wild-type Gramicidin A [3]: equivalent to or ˜2-fold higher
KC50 (50% K+ ion leakage relative to 1% TritonX-100) [4]: 5~10 μM
peptide concentration for 50% K+ ion leakage, fold greater than wild-type Gramicidin A [4]: over 10^5 fold
MICs S. Aureus ([5]; ATCC 6538): 5 µM
MIC relative to wild-type Gramicidin A [5]: equivalent to or ˜2-fold higher
Sat. Conc, Lys series [6]: 39 µM
Tb3+ leakage from LUVs [10]: essentially no Tb3+ leakage; also recorded: behave similarly to gA-5
apparent dissociation constant (Kd) / binding [8]: comparable to that of gA-WT
